The results in this text go back to PubChem BioAssay (NCI).

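A five-concentration, 48-hour dose response in 96-well plates underlies each endpoint, interpolated linearly between surrounding concentrations. Abbreviation: GI50, concentration required for 50% inhibition of growth. TGI: total growth inhibition.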

Among the test systems are 786-0 renal; HOP-62 NSCLC; LOX IMVI melanoma; OVCAR-3 ovarian; SF-268 CNS; SK-MEL-28 melanoma; SK-MEL-5 melanoma; TK-10 renal; RPMI-8226 leukemia.
Common to all, as to test: NCI tumour cell line growth inhibition, 48 h

Consider `CC(=O)C1C(=O)C(=O)N(c2ccc([N+](=O)[O-])cc2Cl)C1=O` (stereo not given), for which the TGI in the assay with 786-0 renal, in the assay with HOP-62 NSCLC, in the assay on LOX IMVI melanoma, in the assay on OVCAR-3 ovarian, with SF-268 CNS and in the assay with SK-MEL-28 melanoma was above 100 µM each time. Further, the TGI in the assay with SK-MEL-5 melanoma and with TK-10 renal was above 100 µM in each case.

For the compound `CC(=O)Oc1cc(OC(C)=O)c2cc3c(cc2c1OC(C)=O)C(=O)C1(CCCC1)C3=O`, the TGI in the assay with 786-0 renal was 31.5 µM; in the assay with HOP-62 NSCLC, 42 µM; in the assay with LOX IMVI melanoma it was 33.5 µM; in the assay on OVCAR-3 ovarian, 34.5 µM; in the assay on RPMI-8226 leukemia, 4.89 µM; in the assay with SF-268 CNS it was 66.5 µM. Further, the TGI with SK-MEL-28 melanoma worked out at 31.7 µM; in the assay on TK-10 renal, 31.3 µM.

For `O/N=C1/C(=C/c2ccc(Cl)cc2)CCCC1C(NO)c1ccc(Cl)cc1` (stereo not given), the TGI with 786-0 renal was found to be 42.7 µM; with HOP-62 NSCLC, 68.9 µM; with OVCAR-3 ovarian, 31 µM; in the assay with RPMI-8226 leukemia, 44.4 µM; with SF-268 CNS, 40.2 µM; in the assay with SK-MEL-28 melanoma it was 22.5 µM. Besides, the TGI with SK-MEL-5 melanoma was 66.2 µM; in the assay on TK-10 renal it was above 100 µM.

`CCN1CCC(O)(c2ccc(Cl)c(Cl)c2)C(C(=O)c2ccc(Cl)c(Cl)c2)C1` (stereo not given): the TGI was 29.1 µM in the assay on 786-0 renal; 33.9 µM with HOP-62 NSCLC; 34 µM in the assay on LOX IMVI melanoma; 27 µM in the assay with OVCAR-3 ovarian; 5.72 µM in the assay on RPMI-8226 leukemia; 38.6 µM in the assay with SF-268 CNS. Further, the TGI in the assay on SK-MEL-28 melanoma is 33 µM; with SK-MEL-5 melanoma it was 31.5 µM; in the assay with TK-10 renal it was 30.5 µM.

For the compound `CC(C)(C)[Si](Nc1ccccc1)(c1ccccc1)c1ccccc1`, the TGI was determined as 28.4 µM in the assay on 786-0 renal; 31.4 µM with HOP-62 NSCLC; 26.1 µM with LOX IMVI melanoma; 27.4 µM in the assay with OVCAR-3 ovarian; 44.1 µM in the assay with RPMI-8226 leukemia; 28 µM with SF-268 CNS. Besides, the results for the TGI in the assay with SK-MEL-28 melanoma, in the assay with SK-MEL-5 melanoma and in the assay on TK-10 renal were 32 µM, 34.2 µM and 28 µM, respectively.

With `C#CCOc1cccc(Nc2ncnc3c2ncn3C2CCN(C(=O)CCl)C2)c1` (stereo not given), the GI50 with 786-0 renal is 18.9 µM; in the assay with HOP-62 NSCLC, 33.3 µM; with OVCAR-3 ovarian, 17.2 µM; in the assay on RPMI-8226 leukemia, 21 µM; in the assay on SF-268 CNS it was 17.7 µM; in the assay on SK-MEL-28 melanoma, 23 µM. For the same compound, the results for the GI50 with SK-MEL-5 melanoma and with TK-10 renal were 17.2 µM and 17.1 µM, respectively. The TGI in the assay with 786-0 renal was 36.8 µM; with HOP-62 NSCLC, above 100 µM; with OVCAR-3 ovarian it was 31.4 µM; in the assay with RPMI-8226 leukemia it was 44.2 µM; in the assay on SF-268 CNS it was 38.2 µM; with SK-MEL-28 melanoma it was 53.9 µM. Also, the TGI in the assay with SK-MEL-5 melanoma is 34.2 µM; with TK-10 renal it was 31.7 µM.

On to `CCCCCCCCCCCCCCCCCCOCC1(COP(=O)([O-])OCC[N+](C)(C)C)CCCO1` (stereo not given), for which the TGI is 13.6 µM in the assay with 786-0 renal; 9.45 µM in the assay on HOP-62 NSCLC; 19.3 µM in the assay with LOX IMVI melanoma; 15.7 µM in the assay on OVCAR-3 ovarian; 8.55 µM in the assay with RPMI-8226 leukemia; 18.2 µM in the assay on SF-268 CNS. Also, the results for the TGI in the assay with SK-MEL-28 melanoma, in the assay on SK-MEL-5 melanoma and in the assay on TK-10 renal were 32.2 µM, 27.7 µM and 3.54 µM, respectively.

`CN(C)C(=S)/N=c1\ssc(=S)n1Cc1ccccn1`: the TGI in the assay with 786-0 renal was 29.1 µM; in the assay with HOP-62 NSCLC, above 100 µM; in the assay with LOX IMVI melanoma, above 100 µM; in the assay with OVCAR-3 ovarian, 11.3 µM; with RPMI-8226 leukemia it was above 25.9 µM; with SF-268 CNS, above 100 µM. Also, the results for the TGI with SK-MEL-28 melanoma, in the assay on SK-MEL-5 melanoma and in the assay on TK-10 renal were above 100 µM, above 54.4 µM and above 100 µM, respectively.

Regarding `CN(C)NC(=S)NC12CC3CC(CC(C3)C1)C2`, the TGI in the assay with 786-0 renal, in the assay on HOP-62 NSCLC, in the assay on LOX IMVI melanoma, in the assay with OVCAR-3 ovarian, in the assay on SF-268 CNS and with SK-MEL-28 melanoma was above 100 µM throughout. Besides, the TGI in the assay on SK-MEL-5 melanoma and in the assay on TK-10 renal was above 100 µM throughout.

As to `Cc1ccc(C(=O)NC(C)C)cc1N=NN(C)C`, the TGI in the assay on 786-0 renal, in the assay with HOP-62 NSCLC, in the assay with LOX IMVI melanoma, with OVCAR-3 ovarian, in the assay with SF-268 CNS and in the assay on SK-MEL-28 melanoma was above 100 µM each time. Besides, the TGI in the assay on SK-MEL-5 melanoma and in the assay on TK-10 renal was above 100 µM in each case.

In the case of `COC(=O)NN=C1C(C)(C)C(=NNC(=O)OC)C1(C)C`, the TGI in the assay with 786-0 renal is above 100 µM; with HOP-62 NSCLC, above 100 µM; in the assay on LOX IMVI melanoma, above 50.9 µM; in the assay on OVCAR-3 ovarian, above 100 µM; with SF-268 CNS, above 100 µM; with SK-MEL-28 melanoma it was above 100 µM. For the same compound, the TGI with SK-MEL-5 melanoma and with TK-10 renal was above 100 µM throughout.

Consider `O=C(O)C1=C(Cl)c2ccccc2S1(=O)=O`, for which the TGI with 786-0 renal, in the assay with HOP-62 NSCLC, with LOX IMVI melanoma, in the assay with RPMI-8226 leukemia, in the assay on SF-268 CNS and in the assay on SK-MEL-28 melanoma was above 100 µM throughout. The TGI in the assay on SK-MEL-5 melanoma and with TK-10 renal was above 100 µM each time.

Consider `COC(=O)C1=C2CO[C@@H]3C[C@H]4C(C)(C)CCC[C@]4(C)C(=CC1)[C@]23C`, for which the GI50 is 41.5 µM in the assay on 786-0 renal; 45.1 µM in the assay with HOP-62 NSCLC; 36.4 µM in the assay on LOX IMVI melanoma; 11.1 µM in the assay with OVCAR-3 ovarian; 13.6 µM in the assay with RPMI-8226 leukemia; 98.3 µM in the assay on SF-268 CNS. Further, the GI50 is 45.3 µM in the assay on SK-MEL-28 melanoma, 20.8 µM in the assay with SK-MEL-5 melanoma and 42.8 µM with TK-10 renal. Further, the TGI in the assay with 786-0 renal was above 100 µM; with HOP-62 NSCLC, above 100 µM; in the assay with LOX IMVI melanoma it was above 100 µM; in the assay with OVCAR-3 ovarian, 32.2 µM; in the assay on RPMI-8226 leukemia it was 29.9 µM; with SF-268 CNS it was above 100 µM. The TGI is above 100 µM in the assay on SK-MEL-28 melanoma, 43.2 µM with SK-MEL-5 melanoma and above 100 µM in the assay on TK-10 renal.

As for `C/C(CC(=O)Nc1ccc(NC(=O)/C(C)=N/NS(=O)(=O)c2ccc(C)cc2)cc1)=N\NS(=O)(=O)c1ccc(C)cc1`, the TGI with 786-0 renal, with HOP-62 NSCLC, with LOX IMVI melanoma, with OVCAR-3 ovarian, in the assay with RPMI-8226 leukemia and in the assay with SF-268 CNS was above 100 µM each time. Moreover, the TGI in the assay on SK-MEL-28 melanoma, in the assay on SK-MEL-5 melanoma and in the assay with TK-10 renal was above 100 µM in each case.
